Experimental data as given in patent US5567692A, “9-[(substituted glycyl) amido)]-6-demethyl-6-deoxytetracyclines” (priority 1995, dated 1996).
Where a name gives a salt, the structure may show the parent alone. Read-outs that look alike come from different tables or passages of the source.

Tests used:
Format in all cases: cell-based
E. coli UBMS 89-1 Tet M = experiment: microbe, parasite or virus in culture; details: Escherichia coli, UBMS891TETM, 18 h
S. aureus UBMS 90-3 = experiment: MIC, agar dilution; details: Staphylococcus aureus, UBMS903, 18 h
S. aureus SMITH (MP) = experiment: MIC, agar dilution; details: Staphylococcus aureus, 18 h
[1] = system: S. aureus UBMS 90-2 Tet M; experiment: microbe, parasite or virus in culture; details: Staphylococcus aureus, UBMS902TETM, 18 h
E. coli J3272 Tet C = experiment: microbe, parasite or virus in culture; details: Escherichia coli, J3272TETC, 18 h
[2] = system: S. aureus UBMS 88-5 Tet M; experiment: microbe, parasite or virus in culture; details: Staphylococcus aureus, UBMS885TETM, 18 h
E. coli UBMS 90-4 Tet M = experiment: microbe, parasite or virus in culture; details: Escherichia coli, UBMS904TETM, 18 h
E. coli J3272 Tet D = experiment: microbe, parasite or virus in culture; details: Escherichia coli, J3272TETD, 18 h
E. coli ATCC 25922 = experiment: MIC, agar dilution; details: Escherichia coli, ATCC25922, 18 h
[3] = system: Ps. aeruginosa ATCC 27853; experiment: MIC, agar dilution; details: Pseudomonas aeruginosa, ATCC27853, 18 h
[4] = system: E. coli UBMS 89-2 Tet sens.; experiment: MIC, agar dilution; details: Escherichia coli, 18 h; E. coli UBMS 89-2 Tet sens.; read-out: MIC
S. aureus UBMS 88-4 = experiment: MIC, agar dilution; details: Staphylococcus aureus, UBMS884, 18 h
S. aureus ROSE (MP) = experiment: MIC, agar dilution; details: Staphylococcus aureus, 18 h
E. coli UBMS 90-5 = experiment: microbe, parasite or virus in culture; details: Escherichia coli, UBMS905, 18 h
S. aureus IVES 2943 = experiment: MIC, agar dilution; details: Staphylococcus aureus, IVES2943, 18 h
S. aureus IVES 1983 = experiment: MIC, agar dilution; details: Staphylococcus aureus, IVES1983, 18 h
E. coli #311 (MP) = experiment: MIC, agar dilution; details: Escherichia coli, 18 h
S. aureus ATCC 29213 = experiment: MIC, agar dilution; details: Staphylococcus aureus, ATCC29213, 18 h, S. aureus ATCC 29213
[5] = system: S. aureus UBMS 88-7 Tet K; experiment: microbe, parasite or virus in culture; details: Staphylococcus aureus, UBMS887TETK, 18 h
S. aureus NEMC 8769 = experiment: MIC, agar dilution; details: Staphylococcus aureus, NEMC8769, 18 h
E. coli PRP1 Tet A = experiment: microbe, parasite or virus in culture; details: Escherichia coli, PRP1TETA, 18 h
[6] = system: S. hemolyticus AVHAH 88-3; experiment: MIC, agar dilution; details: Streptococcus pyogenes, AVHAH883, 18 h
E. coli J2175 = experiment: MIC, agar dilution; details: Escherichia coli, 18 h, read-out: MIC
Enterococcus 12201 = experiment: MIC, agar dilution; details: Enterococcus, 12201, 18 h
[7] = system: S. aureus UBMS 90-1 Tet M; experiment: microbe, parasite or virus in culture; details: Staphylococcus aureus, UBMS901TETM, 18 h
E. faecalis ATCC 29212 = experiment: MIC, agar dilution; details: Enterococcus faecalis, ATCC29212, 18 h
[8] = system: X. maltophilia NEMC 87210; experiment: MIC, agar dilution; details: Stenotrophomonas maltophilia, NEMC87210, 18 h
E. coli UBMS 88-1 Tet B = experiment: microbe, parasite or virus in culture; details: Escherichia coli, UBMS881TETB, 18 h
E. coli BAJ9003 IMP MUT = experiment: microbe, parasite or virus in culture; details: Escherichia coli, BAJ9003IMPMUT, 18 h
S. marcescens FPOR 8733 = experiment: MIC, agar dilution; details: Serratia marcescens, FPOR8733, 18 h
[9] = system: E. coli MC 4100 Tet sens.; experiment: MIC, agar dilution; details: Escherichia coli, 18 h
[10] = system: E. coli MC 4100 TNIOC Tet B; experiment: microbe, parasite or virus in culture; details: Escherichia coli, 18 h
[11] = Ps. aeruginosa ATCC 27853, read-out: MIC
[12] = E. coli UBMS 90-5, read-out: MIC
[13] = S. aureus IVES 1983, read-out: MIC
[14] = E. coli #311 (MP), read-out: MIC

SMILES | MIC (E. coli UBMS 89-1 Tet M) [mg/L] | MIC [1] [mg/L] | MIC (E. coli J3272 Tet C) [mg/L] | MIC [2] [mg/L] | MIC (E. coli UBMS 90-4 Tet M) [mg/L] | MIC (E. coli J3272 Tet D) [mg/L] | MIC [3, 11] [mg/L] | MIC (S. aureus UBMS 88-4) [mg/L] | MIC (E. coli UBMS 90-5; [12]) [mg/L] | MIC (S. aureus IVES 2943) [mg/L] | MIC (E. coli #311 (MP); [14]) [mg/L] | MIC (S. aureus ATCC 29213) [mg/L] | MIC [5] [mg/L] | MIC (S. aureus NEMC 8769) [mg/L] | MIC (E. coli PRP1 Tet A) [mg/L] | MIC [6] [mg/L] | MIC (E. coli J2175) [mg/L] | MIC [7] [mg/L] | MIC [8] [mg/L] | MIC (E. coli UBMS 88-1 Tet B) [mg/L] | further results
CNCC(=O)Nc1ccc2c(c1O)C(=O)C1=C(O)[C@]3(O)C(=O)C(C(N)=O)=C(O)[C@@H](N(C)C)C3CC1C2 (stereo partly drawn) [F, [4S-(4alpha,12aalpha)]-4-(Dimethylamino)-1,4,4a,5,5a,6,11,12a-octahydro-3,10,12,12a-tetrahydroxy-9-[[(methylamino)acetyl]amino]-1,11-dioxo-2-naphthacenecarboxamide dihydrochloride] | 0.5 | 0.5 | 4 | 1 | 0.5 | 0.5 | 32 | 0.5 | 0.5 | > 32 | 0.5 | 0.5 | 16 | 0.25 | 4 | 1 | 0.5 | 0.5 | 16 | 1 | MIC (S. aureus UBMS 90-3): 0.5 mg/L; MIC (S. aureus SMITH (MP)): 0.5 mg/L; MIC (E. coli ATCC 25922; read-out: MIC): 0.5 mg/L; MIC [4]: 1 mg/L; MIC (S. aureus ROSE (MP)): > 32 mg/L; MIC (S. aureus IVES 1983; [13]): 16 mg/L; MIC (Enterococcus 12201): 0.5 mg/L; MIC (E. faecalis ATCC 29212): 0.5 mg/L; MIC (E. coli BAJ9003 IMP MUT): 0.5 mg/L; MIC (S. marcescens FPOR 8733): 4 mg/L
CN(C)[C@@H]1C(O)=C(C(N)=O)C(=O)[C@@]2(O)C(O)=C3C(=O)c4c(ccc(NC(=O)CNCc5cccs5)c4O)CC3CC12 (stereo partly drawn) [L, [4S-(4-alpha,12aalpha)]-4-(Dimethylamino)-1,4,4a,5,5a,6,11,12a-octahydro-3,10,12,12a-tetrahydroxy-1,11-dioxo-9-[[[(2-thienylmethyl)amino]acetyl]amino]-2-naphthacenecarboxamide dihydrochloride] | 8 | 8 | 32 | 8 | 8 | 16 | > 32 | 8 | 16 | 16 | 16 | 8 | 16 | 8 | 16 | 8 | 16 | 8 | > 32 | 32 | MIC (S. aureus UBMS 90-3; S. aureus UBMS 90-3): 4 mg/L; MIC (S. aureus SMITH (MP); S. aureus SMITH (MP)): 4 mg/L; MIC (E. coli ATCC 25922): 8 mg/L; MIC [9]: 8 mg/L; MIC (S. aureus ROSE (MP)): 32 mg/L; MIC (S. aureus IVES 1983): 16 mg/L; MIC (Enterococcus 12201; Enterococcus 12201, read-out: MIC): 8 mg/L; MIC [10]: 32 mg/L; MIC (E. coli BAJ9003 IMP MUT): 4 mg/L; MIC (S. marcescens FPOR 8733): > 32 mg/L
CCCCCNCC(=O)Nc1ccc2c(c1O)C(=O)C1=C(O)[C@]3(O)C(=O)C(C(N)=O)=C(O)[C@@H](N(C)C)C3CC1C2 (stereo partly drawn) [K, [4S-(4alpha,12aalpha)]-4-(Dimethylamino)-1,4,4a,5,5a,6,11,12a-octahydro-3,10,12,12a-tetrahydroxy-1,11-dioxo-9-[[(pentylamino)acetyl]amino]-2-naphthacenecarboxamide monohydrochloride] |  |  | 0.5 |  |  | 0.5 | 32 |  |  | 2 |  |  | 2 | 0.12 | 0.5 | 2 | 0.5 |  | 1 | 1 | MIC ([2]; S. aureus UBMS 88-5 Tet M): 0.5 mg/L; MIC (E. coli UBMS 90-4 Tet M; E. coli UBMS 90-4 Tet M): 0.5 mg/L; MIC (E. coli ATCC 25922): 0.5 mg/L; MIC [9]: 0.5 mg/L; MIC (S. aureus ROSE (MP); read-out: MIC): 8 mg/L; MIC (E. coli UBMS 90-5): 0.5 mg/L; MIC (S. aureus IVES 1983): 2 mg/L; MIC (E. coli #311 (MP)): 0.5 mg/L; MIC (S. aureus ATCC 29213; read-out: MIC): 0.5 mg/L; MIC ([7]; S. aureus UBMS 90-1 Tet M): 0.5 mg/L; MIC [10]: 0.5 mg/L; MIC (S. marcescens FPOR 8733; read-out: MIC): 4 mg/L
CN(C)[C@@H]1C(O)=C(C(N)=O)C(=O)[C@@]2(O)C(O)=C3C(=O)c4c(ccc(NC(=O)CNCc5ccccc5)c4O)CC3CC12 (stereo partly drawn) [J, [4S-(4alpha,12aalpha)]-4-(Dimethylamino)-1,4,4a,5,5a,6,11,12a-octahydro-3,10,12,12a-tetrahydroxy-1,11-dioxo-9-[[[(phenylmethyl)amino]acetyl]amino]-2-naphthacenecarboxamide dihydrochloride] | 2 | 1 | 4 | 2 | 4 | 4 |  | 1 | 4 |  | 4 | 1 | 4 | 1 | 4 |  | 4 | 4 | 16 | 4 | MIC (S. aureus UBMS 90-3): 0.5 mg/L; MIC (S. aureus SMITH (MP)): 0.5 mg/L; MIC (E. coli ATCC 25922; read-out: MIC): 4 mg/L; MIC [3]: > 32 mg/L; MIC [9]: 0.5 mg/L; MIC (S. aureus ROSE (MP); read-out: MIC): 8 mg/L; MIC (S. aureus IVES 2943; S. aureus IVES 2943, read-out: MIC): 4 mg/L; MIC (S. aureus IVES 1983; [13]): 4 mg/L; MIC ([6]; S. hemolyticus AVHAH 88-3, read-out: MIC): 4 mg/L; MIC (Enterococcus 12201): 2 mg/L; MIC (E. faecalis ATCC 29212): 0.25 mg/L; MIC (E. coli BAJ9003 IMP MUT): 0.5 mg/L; MIC (S. marcescens FPOR 8733; read-out: MIC): > 32 mg/L
